Measured values published in patent publication EP1818052A1 (Acacia Pharma Limited, priority 2004, dated 2006).
Several values for one entry are separate records, joined by “and”; a condition that tells them apart may be missing. Identical values can stand only once. Like-named read-outs stand apart in the source and are kept apart here.

Legend:
isolated EDL muscles [1] = assay: Proteolytic rate (tyrosine release) in incubated isolated EDL muscles; format: cell-based, rats; conditions: for Proteolytic rate: EDL muscles from control rats, 10^-4 M added to incubation medium, cycloheximide 0.5 mM
Procedure: (§1) The dissection and isolation of the EDL muscles was carried out under ketamine/xylazine mixture anesthesia. […] Such muscles are able to maintain normal ATP and phosphocreatine concentrations during a 3 hours incubation period. The muscles were incubated in a shaking-thermostatized water bath at 35 °C for 3 hours in 2 ml of Krebs-Henseleit physiological saline pH 7.4, containing 5 mM glucose and 20 mM HEPES. After the addition of the muscles to the vials, the incubation started at a shaking rate of 45 cycles/min.
(§2) Total protein degradation by the isolated muscles was calculated as the rate of tyrosine released in the last two hours of incubation into the medium in the presence of 0.5 mM cycloheximide in order to block the reincorporation of tyrosine into tissue protein. Tyrosine was measured fluorimetrically. Statistical analysis of the data was performed by means of the Student's t test.

isolated EDL muscles [2] = system: isolated EDL muscles
Procedure: as §1, §2
Rates were measured in presence of cycloheximide (0.5 mM) and are expressed as nmols/g and 2 hours. […]

isolated EDL muscles [3] = assay: Protein synthesis rate in incubated isolated EDL muscles; format: cell-based, rats; conditions: for Rate of protein synthesis: EDL muscles from control rats, 10^-4 M added to incubation medium; for increase of the rate of protein synthesis: incubated rat EDL muscles, 10^-4 M in medium
Procedure: as §1
Synthetic rates are expressed as nmols of [^14C]phenylalanine incorporated per g and 30 min. […]

[4] = system: rats bearing Yoshida AH-130 ascites hepatoma; conditions: rat, in vivo
[5] = system: rats bearing Yoshida AH-130 ascites hepatoma; conditions: rat, in vivo; remark: listed apart in the source
[6] = system: rats bearing Yoshida AH-130 ascites hepatoma; conditions: rat, in vivo; remark: listed apart in the source
[7] = system: tibialis muscles previously injected with bupivacain; assay: Muscular damage by bupivacain: tibialis muscle weight; format: in vivo; conditions: rats injected with bupivacain (0.5%) only (C+B)
Text: Muscular regeneration is a process that implies satellite cells activation, muscle precursors cells that lie adjacent to the skeletal muscle fibers. The muscle was damaged by injecting bupivacain intramuscularly (0.5%). This compound, after muscle damage, stimulates muscular regeneration.
Muscle weights are expressed as mg/100 g of initial body weight. Results are mean ± SEM for the number of animals indicated in parentheses.

Pax-7 and myogenin = assay: Real time PCR of satellite cell activation markers in tibialis muscle after bupivacain damage; format: in vivo, rats; conditions: bupivacain (0.5%) only (C + B)
Text: PAx-7 and myogenin. Results are mean ± SEM for the number of animals indicated in parentheses.

COc1ccc(C[C@H](C)NC[C@@H](O)c2ccc(O)c(NC=O)c2)cc1 (racemic) [formoterol]
Proteolytic rate (isolated EDL muscles [1]): 180 ± 5.6 (8) nmols/g and 2 hours | decrease of the rate of protein degradation (release of tyrosine) (isolated EDL muscles [1]; isolated EDL muscles, 10^-4 M in medium): 20% | Proteolytic rate (isolated EDL muscles [2]; EDL muscles from rats given formoterol 2 mg/kg bw for six consecutive days, cycloheximide 0.5 mM): 159 ± 5 (8) nmols/g and 2 hours | decrease of proteolytic rate (isolated EDL muscles [2]; EDL muscles from rats pre-treated for six consecutive days): 12% | Rate of protein synthesis (isolated EDL muscles [3]): 9.36 ± 0.3 (7) nmols of [14C]phenylalanine in | increase of the rate of protein synthesis (isolated EDL muscles [3]): 20% | Tumor cell number [4]: not significantly affected | adipose tissues weight: brown (interscapular) [4]: 278 ± 21 mg/100 g of initial body weight and 177 ± 11 † *** mg/100 g of initial body weight | adipose tissues weight: white (dorsal) [4]: 759 ± 126 mg/100 g of initial body weight and 461 ± 49 mg/100 g of initial body weight | brown adipose tissue weight [4]: increase | carcass weight [4]: 113 ± 11 g/100 g of initial body weight and 81 ± 1 g/100 g of initial body weight | increase in EDL weight [4]: 32% and 16% | increase in cardiac muscle weight [4]: 21% | increase in heart weight [4]: 11% | muscle weight: EDL [4]: 70 ± 3 mg/100 g of initial body weight and 50 ± 1 ††† *** mg/100 g of initial body weight | muscle weight: gastrocnemius [4]: 859 ± 38 mg/100 g of initial body weight and 639 ± 16 mg/100 g of initial body weight | muscle weight: heart [4]: 520 ± 15 mg/100 g of initial body weight and 426 ± 17 † ** mg/100 g of initial body weight | muscle weight: soleus [4]: 55 ± 4 mg/100 g of initial body weight and 40 ± 1 mg/100 g of initial body weight | muscle weight: tibialis [4]: 275 ± 12 mg/100 g of initial body weight and 204 ± 4 †† *** mg/100 g of initial body weight | trophic action on soleus [4]: not significantly affected | tumor cell content [4]: 3403 ± 88 (5) millions of cells | white adipose tissue mass [4]: tendency towards a decrease | efficacy against cachexia [5]: effective against cachexia | muscle weights: soleus [5]: 37 ± 1 mg/100 g of initial body weight and 33 ± 2 mg/100 g of initial body weight and 37 ± 2 mg/100 g of initial body weight | carcass weigth [6]: 106 ± 1 g/100 g of initial body weight and 97 ± 1 g/100 g of initial body weight | effect on cancer cachexia [6]: effective at low doses | muscle weigths: EDL [6]: 52 ± 1 t mg/100 g of initial body weight and 51 ± 2 t mg/100 g of initial body weight | muscle weigths: gastrocnemius [6]: 629 ± 9 mg/100 g of initial body weight and 598 ± 16 mg/100 g of initial body weight | muscle weigths: heart [6]: 431 ± 5 mg/100 g of initial body weight and 417 ± 18 mg/100 g of initial body weight | muscle weigths: soleus [6]: 43 ± 2 mg/100 g of initial body weight and 43 ± 1 mg/100 g of initial body weight | muscle weigths: tibialis [6]: 210 ± 5 t mg/100 g of initial body weight and 199 ± 4 t mg/100 g of initial body weight

CCCCN1CCCCC1C(=O)Nc1c(C)cccc1C (stereo not shown) [B, bupivacain]
weight of tibialis muscles [7]: 265 ± 4 mg/100 g of initial body weight | Myogenin gene expression (Pax-7 and myogenin): 142 ± 77 | Pax-7 gene expression (Pax-7 and myogenin): 105 ± 11

CC(C)(C)NCC(O)c1cc(Cl)c(N)c(Cl)c1 (stereo not shown) [clenbuterol]
Proteolytic rate (isolated EDL muscles [1]): 176 ± 4.4 (8) nmols/g and 2 hours | Rate of protein synthesis (isolated EDL muscles [3]): 9.36 ± 0.5 (9) nmols of [14C]phenylalanine in | increase of the rate of protein synthesis (isolated EDL muscles [3]): 20%
